Laboratory results published in the supplement of paper PMC6045584.
± gives the standard deviation of the averaged measurements.

What was measured:
[1] = compound: COc1cccc2c1C(=O)c1c(O)c3c(c(O)c1C2=O)C[C@@](O)(C(=O)CO)C[C@@H]3O[C@H]1C[C@H](N)[C@H](O)[C@H](C)O1 [DOXORUBICIN]; assay: surviving fraction relative to DMSO-only wells; higher = less growth inhibition; settings: exposure time: 5 days
Method in brief: (§1)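 Surviving fraction was calculated by normalising CellTiter-Glo luminescence to the median of DMSO-only wells. Tumour cell lines in log phase were seeded in 384-well plates at 250–500 cells per well, and 24 hours later were exposed continuously for five days to inhibitors at 0.5, 1, 5, 10, 50, 100, 500 and 1000 nM.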

[2] = compound: CS(=O)(=O)c1ccc(C(=O)Nc2ccc(Cl)c(-c3ccccn3)c2)c(Cl)c1 [VISMODEGIB]; assay: as above; settings: exposure time: 5 days
Method in brief: as §1

Row | Test System | surviving fraction ([1]; 0.5 nM) | surviving fraction ([1]; 1 nM) | surviving fraction ([1]; 5 nM) | surviving fraction ([1]; 10 nM) | surviving fraction ([1]; 50 nM) | surviving fraction ([1]; 100 nM) | surviving fraction ([1]; 500 nM) | surviving fraction ([1]; 1000 nM) | surviving fraction ([2]; 0.5 nM) | surviving fraction ([2]; 1 nM) | surviving fraction ([2]; 5 nM) | surviving fraction ([2]; 10 nM) | surviving fraction ([2]; 50 nM) | surviving fraction ([2]; 100 nM) | surviving fraction ([2]; 500 nM) | surviving fraction ([2]; 1000 nM)
1 | JURKAT HAEMATOPOIETIC AND LYMPHOID TISSUE | 1.05 ± 0.023 | 1.049 ± 0.0078 | 0.61 ± 0.035 | 0.129 ± 0.004 | 0.0323 ± 0.00058 | 0.0293 ± 0.00058 | 0.027 | 0.0297 ± 0.00058 | 1.09 ± 0.0025 | 1.09 ± 0.017 | 1.06 ± 0.017 | 1.1 ± 0.019 | 0.99 ± 0.016 | 1.04 ± 0.026 | 1.02 ± 0.032 | 1.05 ± 0.017
2 | KPD BONE | 1.06 ± 0.057 | 0.963 ± 0.056 | 0.897 ± 0.075 | 0.909 ± 0.05 | 0.242 ± 0.048 | 0.116 ± 0.011 | 0.0297 ± 0.0031 | 0.0317 ± 0.0015 | 0.899 ± 0.045 | 0.946 ± 0.088 | 1.05 ± 0.078 | 1.01 ± 0.017 | 0.956 ± 0.012 | 1.05 ± 0.073 | 0.98 ± 0.039 | 0.933 ± 0.07
3 | LM7 BONE | 0.95 ± 0.033 | 1.05 ± 0.073 | 0.902 ± 0.051 | 0.818 ± 0.014 | 0.245 ± 0.016 | 0.229 ± 0.018 | 0.0483 ± 0.0038 | 0.0483 ± 0.0065 | 0.92 ± 0.055 | 0.955 ± 0.02 | 1.56 ± 1 | 1.03 ± 0.037 | 0.865 ± 0.01 | 0.909 ± 0.067 | 0.849 ± 0.067 | 0.86 ± 0.085
4 | LNCAP PROSTATE | 0.973 ± 0.018 | 0.863 ± 0.076 | 0.483 ± 0.075 | 0.33 ± 0.029 | 0.124 ± 0.013 | 0.0727 ± 0.01 | 0.024 ± 0.0017 | 0.0247 ± 0.0011 | 1.01 ± 0.17 | 0.95 ± 0.15 | 1.01 ± 0.13 | 1.02 ± 0.21 | 1.14 ± 0.11 | 1.08 ± 0.19 | 1.13 ± 0.13 | 1.08 ± 0.12
5 | MCF7 BREAST | 0.857 ± 0.038 | 0.868 ± 0.042 | 0.859 ± 0.053 | 0.7804 ± 0.0075 | 0.589 ± 0.032 | 0.469 ± 0.0095 | 0.0898 ± 0.0037 | 0.0774 ± 0.008 | 0.898 ± 0.029 | 0.916 ± 0.059 | 0.874 ± 0.032 | 0.892 ± 0.097 | 0.883 ± 0.032 | 0.966 ± 0.043 | 0.913 ± 0.041 | 0.904 ± 0.037
6 | MDAMB134 BREAST | 0.865 ± 0.0028 | 0.835 ± 0.098 | 1.03 ± 0.021 | 0.9 ± 0.098 | 0.734 ± 0.023 | 0.693 ± 0.085 | 0.106 ± 0.019 | 0.0295 ± 0.0035 | 0.848 ± 0.089 | 0.886 ± 0.14 | 0.878 ± 0.057 | 0.915 ± 0.062 | 0.687 ± 0.12 | 0.717 ± 0.093 | 0.625 ± 0.024 | 0.662 ± 0.11
7 | MDAMB157 BREAST | 0.918 ± 0.025 | 0.869 ± 0.053 | 0.498 ± 0.058 | 0.213 ± 0.02 | 0.375 ± 0.042 | 0.214 ± 0.014 | 0.053 ± 0.0027 | 0.0307 ± 0.0046 | 0.901 ± 0.11 | 0.943 ± 0.098 | 1.02 ± 0.04 | 0.966 ± 0.06 | 1.02 ± 0.11 | 1.13 ± 0.12 | 1.01 ± 0.049 | 0.977 ± 0.061
8 | MDAMB231 BREAST | 0.979 ± 0.029 | 0.992 ± 0.037 | 0.946 ± 0.024 | 0.817 ± 0.026 | 0.53 ± 0.014 | 0.474 ± 0.011 | 0.125 ± 0.0043 | 0.0638 ± 0.0041 | 0.9193 ± 0.003 | 0.942 ± 0.018 | 0.95 ± 0.019 | 0.96 ± 0.02 | 0.884 ± 0.014 | 0.9527 ± 0.0036 | 0.85 ± 0.025 | 0.8868 ± 0.0044
9 | MDAMB361 BREAST | 0.794 ± 0.089 | 0.997 ± 0.12 | 0.906 ± 0.013 | 0.856 ± 0.074 | 0.746 ± 0.038 | 0.831 ± 0.1 | 0.387 ± 0.034 | 0.0543 ± 0.013 | 0.83 ± 0.021 | 0.798 ± 0.039 | 0.829 ± 0.043 | 0.784 ± 0.051 | 0.571 ± 0.019 | 0.612 ± 0.093 | 0.583 ± 0.049 | 0.598 ± 0.032
10 | MDAMB436 BREAST | 0.895 ± 0.077 | 0.905 ± 0.069 | 0.822 ± 0.12 | 0.783 ± 0.026 | 0.484 ± 0.036 | 0.423 ± 0.049 | 0.297 ± 0.016 | 0.269 ± 0.031 | 0.851 ± 0.041 | 0.865 ± 0.0089 | 0.873 ± 0.027 | 0.852 ± 0.071 | 0.891 ± 0.04 | 0.915 ± 0.056 | 0.751 ± 0.013 | 0.78 ± 0.045
11 | MDAMB453 BREAST | 1.05 ± 0.045 | 1.04 ± 0.065 | 1.07 ± 0.017 | 1.08 ± 0.044 | 0.723 ± 0.065 | 0.395 ± 0.066 | 0.0503 ± 0.0055 | 0.0433 ± 0.0023 | 0.926 ± 0.025 | 0.966 ± 0.03 | 0.951 ± 0.021 | 1.03 ± 0.043 | 0.89 ± 0.047 | 0.954 ± 0.014 | 0.949 ± 0.027 | 0.9893 ± 0.0072
12 | MDAMB468 BREAST | 0.897 ± 0.065 | 0.931 ± 0.075 | 0.992 ± 0.039 | 0.969 ± 0.013 | 0.49 ± 0.18 | 0.342 ± 0.006 | 0.11 ± 0.035 | 0.038 ± 0.0072 | 1.02 ± 0.064 | 0.927 ± 0.056 | 0.996 ± 0.058 | 0.957 ± 0.085 | 0.908 ± 0.083 | 1.02 ± 0.076 | 0.944 ± 0.065 | 0.955 ± 0.1
13 | MFM223 BREAST | 1.11 ± 0.045 | 1.05 ± 0.032 | 0.975 ± 0.069 | 0.702 ± 0.12 | 0.669 ± 0.082 | 0.221 ± 0.013 | 0.079 ± 0.0053 | 0.052 ± 0.007 | 1.07 ± 0.11 | 1.1 ± 0.021 | 1.05 ± 0.058 | 1.14 ± 0.035 | 0.841 ± 0.08 | 0.875 ± 0.081 | 0.901 ± 0.068 | 0.853 ± 0.063
14 | MG63 BONE | 1.02 ± 0.041 | 1.04 ± 0.053 | 1.04 ± 0.022 | 1.03 ± 0.028 | 0.21 ± 0.014 | 0.16 ± 0.025 | 0.0327 ± 0.0025 | 0.031 ± 0.0017 | 0.925 ± 0.035 | 0.9747 ± 0.0063 | 0.982 ± 0.023 | 0.993 ± 0.026 | 0.983 ± 0.003 | 1.01 ± 0.02 | 0.905 ± 0.007 | 0.966 ± 0.026
15 | MHM BONE | 0.992 ± 0.027 | 1.03 ± 0.016 | 1.008 ± 0.009 | 1.005 ± 0.0081 | 0.841 ± 0.029 | 0.792 ± 0.02 | 0.296 ± 0.031 | 0.16 ± 0.019 | 0.978 ± 0.04 | 1.018 ± 0.0098 | 1.04 ± 0.035 | 1.02 ± 0.027 | 1.04 ± 0.015 | 1.05 ± 0.017 | 1.04 ± 0.008 | 1.085 ± 0.0059
16 | NCIH441 LUNG | 1.04 ± 0.054 | 1.06 ± 0.051 | 0.937 ± 0.032 | 0.799 ± 0.029 | 0.558 ± 0.013 | 0.461 ± 0.024 | 0.246 ± 0.019 | 0.096 ± 0.0069 | 0.971 ± 0.018 | 1.02 ± 0.11 | 1.01 ± 0.032 | 1.05 ± 0.036 | 0.971 ± 0.041 | 0.945 ± 0.041 | 0.9667 ± 0.0045 | 1.03 ± 0.086
17 | NOS1 BONE | 1.16 ± 0.077 | 0.972 ± 0.051 | 0.982 ± 0.1 | 0.643 ± 0.074 | 0.752 ± 0.11 | 0.455 ± 0.036 | 0.106 ± 0.013 | 0.0487 ± 0.0068 | 1.09 ± 0.11 | 1.13 ± 0.13 | 1.1 ± 0.076 | 1.2 ± 0.065 | 0.926 ± 0.088 | 0.958 ± 0.049 | 0.819 ± 0.022 | 0.832 ± 0.04
18 | NY BONE | 0.959 ± 0.019 | 0.966 ± 0.013 | 0.981 ± 0.015 | 0.876 ± 0.058 | 0.294 ± 0.015 | 0.201 ± 0.0044 | 0.0617 ± 0.004 | 0.0443 ± 0.0057 | 0.955 ± 0.018 | 0.968 ± 0.033 | 0.977 ± 0.018 | 1.06 ± 0.027 | 0.993 ± 0.025 | 0.996 ± 0.016 | 0.932 ± 0.058 | 1.01 ± 0.041
19 | OS25HAL BONE | 0.982 ± 0.016 | 0.974 ± 0.013 | 0.97033 ± 0.00058 | 0.965 ± 0.0076 | 0.258 ± 0.033 | 0.151 ± 0.01 | 0.0337 ± 0.0047 | 0.038 ± 0.003 | 1 ± 0.014 | 1 ± 0.033 | 0.9983 ± 0.009 | 0.998 ± 0.017 | 0.967 ± 0.019 | 0.98 ± 0.005 | 1.01 ± 0.048 | 1.02 ± 0.054
20 | OSHN BONE | 1.04 ± 0.039 | 1.05 ± 0.059 | 1.05 ± 0.031 | 1.03 ± 0.028 | 0.299 ± 0.068 | 0.286 ± 0.062 | 0.0707 ± 0.0021 | 0.0503 ± 0.00058 | 1.01 ± 0.022 | 1.03 ± 0.019 | 1.05 ± 0.013 | 1.059 ± 0.0084 | 0.955 ± 0.021 | 0.991 ± 0.024 | 0.963 ± 0.031 | 0.989 ± 0.025
